Source: patent EP4227307A1 (Genzyme Corporation, priority 2022, dated 2023)
Where a name gives a salt, the structure may show the parent alone.

The compounds below were run against T1, human recombinant 6His-Nterm SHP2 full-length (Thr2-Arg593) (Homo sapiens, UniProt Q06124) (assay: SHP2 Phosphatase Assay (DiFMUP fluorescence)). Settings: SHP2 0.2 nM pre-incubated with 100 nM bi-phosphorylated activating peptide; compound 1000-0.05 nM, 30 min pre-incubation; DiFMUP 20 µM, 45 min, room temperature; 10-concentration dose-response.
T1 construct: 6His-Nterm SHP2 full-length (Thr2-Arg593, R&D system); 6His (N); purchased R&D system
T1 sequence (Q06124 2-593): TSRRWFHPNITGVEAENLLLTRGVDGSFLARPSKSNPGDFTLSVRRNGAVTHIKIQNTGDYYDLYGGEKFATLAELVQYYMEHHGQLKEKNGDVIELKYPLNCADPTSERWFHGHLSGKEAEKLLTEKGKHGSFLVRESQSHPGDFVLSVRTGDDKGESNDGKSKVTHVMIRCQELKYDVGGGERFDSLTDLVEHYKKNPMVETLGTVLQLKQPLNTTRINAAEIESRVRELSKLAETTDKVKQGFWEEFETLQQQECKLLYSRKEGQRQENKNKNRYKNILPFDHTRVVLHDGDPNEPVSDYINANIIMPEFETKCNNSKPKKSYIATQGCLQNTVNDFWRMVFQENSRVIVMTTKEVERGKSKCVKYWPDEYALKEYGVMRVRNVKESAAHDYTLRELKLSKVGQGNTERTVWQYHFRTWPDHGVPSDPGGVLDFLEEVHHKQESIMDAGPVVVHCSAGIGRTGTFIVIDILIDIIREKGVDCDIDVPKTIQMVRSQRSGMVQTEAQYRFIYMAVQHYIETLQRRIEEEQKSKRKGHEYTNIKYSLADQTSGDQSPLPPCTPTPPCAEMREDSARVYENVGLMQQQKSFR
Format: biochemical
How it was run: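 SHP2 (0.2 nM) preactivated ≥10 min with 100 nM bis-phosphorylated peptide, then 30 min with compound (10 concentrations, 1000–0.05 nM) at room temperature, pH 7.2 HEPES buffer with DTT. DiFMUP (20 µM, added solution) reacted 45 min, pervanadate-stopped; fluorescence 350/450 nm. IC50 by 4-parameter logistic fit.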
Work on `COc1ccc2c(c1)[C@@H](N)C1(CCN(c3nc(C)c(-c4cnn(C)c4C)n4nccc34)CC1)C2` [Compound 120, (1S)-1'-[7-(1,5-dimethylpyrazol-4-yl)-6-methyl-pyrazolo[1,5-a]pyrazin-4-yl]-6-methoxy-spiro[indane-2,4'-piperidine]-1-amine hydrochloride] yielded an IC50 of 11 nM. In the case of `COc1cc2c(cn1)[C@@H](N)C1(CCN(c3nc(C)c(-c4ccnc(C)c4Cl)n4nccc34)CC1)C2` [Compound 121, (7S)-1'-[7-(3-chloro-2-methyl-4-pyridyl)-6-methyl-pyrazolo[1,5-a]pyrazin-4-yl]-3-methoxy-spiro [5,7-dihydrocyclopenta[c]pyridine-6,4'-piperidine]-7-amine], the IC50 is reported as 8 nM. For `COc1cc2c(cn1)[C@@H](N)C1(CCN(c3nc(C)c(-c4ccccc4F)n4nccc34)CC1)C2` [Compound 122, (7S)-1''-[7-(2-fluorophenyl)-6-methyl-pyrazolo[1,5-a]pyrazin-4-yl] -3-methoxy-spiro [5,7-dihydrocyclopenta[c]pyridine-6,4'-piperidine]-7-amine], the IC50 was 12 nM. With `COc1ccc2c(c1)[C@@H](N)C1(CCN(c3nc(C)c(-c4cc(C)nn4C)n4nccc34)CC1)C2` [Compound 123, (1S)-1'-[7-(2,5-dimethylpyrazol-3-yl)-6-methyl-pyrazolo[1,5-a]pyrazin-4-yl]-6-methoxy-spiro[indane-2,4'-piperidine]-1-amine hydrochloride] the IC50 was 9 nM. With `Cc1cc(-c2c(C)nc(N3CCC4(CC3)Cc3ncccc3[C@H]4N)c3ccnn23)cnn1` [Compound 124, (5S)-1'-[6-methyl-7-(6-methylpyridazin-4-yl)pyrazolo[1,5-a]pyrazin-4-yl]spiro[5,7-dihydrocyclopenta[b]pyridine-6,4'-piperidine]-5-amine hydrochloride] the IC50 was 391 nM. Compound `CCn1ncc(-c2c(C)nc(N3CCC4(CC3)Cc3ccc(OC)cc3[C@H]4N)c3ccnn23)c1C` [Compound 125, (1S)-1'-[7-(1-ethyl-5-methyl-pyrazol-4-yl)-6-methyl-pyrazolo[1,5-a]pyrazin-4-yl]-6-methoxy-spiro [indane-2,4'-piperidine]-1-amine hydrochloride] has an IC50 of 9 nM. Work on `COc1ccc2c(c1)[C@@H](N)C1(CCN(c3nc(C)c(-c4cnn(C)c4Cl)n4nccc34)CC1)C2` [Compound 126, (1S)-1'-[7-(5-chloro-1-methyl-pyrazol-4-yl)-6-methyl-pyrazolo[1,5-a]pyrazin-4-yl] -6-methoxy-spiro[indane-2,4'-piperidine]-1-amine hydrochloride] yielded an IC50 of 4 nM. In the case of `COc1ccc2c(c1)[C@@H](N)C1(CCN(c3nc(C)c(-c4cc(C(F)(F)F)nn4C)n4nccc34)CC1)C2` [Compound 127, (1S)-6-methoxy-1'-[6-methyl-7-[2-methyl-5-(trifluoromethyl)pyrazol-3-yl]pyrazolo[1,5-a]pyrazin-4-yl]spiro[indane-2,4'-pipendine]-1-amine hydrochloride], the IC50 is reported as 22 nM. `Cc1nccc(-c2c(C)nc(N3CCC4(CC3)Oc3ccccc3[C@H]4N)c3ccnn23)c1Cl` [Compound 128, (3R)-1'-[7-(3-chloro-2-methyl-4-pyridyl)-6-methyl-pyrazolo[1,5-a]pyrazin-4-yl]spiro[3H-benzofuran-2,4'-piperidine]-3-amine] gave an IC50 of 17 nM. In the case of `Cc1nc(N2CCC3(CC2)Oc2ncccc2[C@H]3N)c2ccnn2c1-c1cccc(F)c1C(F)(F)F` [Compound 129, (3R)-1'-[7-[3-fluoro-2-(trifluoromethyl)phenyl]-6-methyl-pyrazolo[1,5-a]pyrazin-4-yl]spiro[3H-furo[2,3-b]pyridine-2,4'-piperidine]-3-amine], the IC50 is reported as > 1000 nM. For `Cc1nc(N2CCC3(CC2)Cc2cccnc2[C@H]3N)c2ccnn2c1-c1cnn(C)c1C` [Compound 130, (7S)-1'-[7-(1,5-dimethylpyrazol-4-yl)-6-methyl-pyrazolo[1,5-a]pyrazin-4-yl]spiro[5,7-dihydrocyclopenta[b]pyridine-6,4'-piperidine]-7-amine], the IC50 was 60 nM. Compound `COc1cc2c(cn1)CC1(CCN(c3nc(C)c(-c4ccccc4F)n4nccc34)CC1)[C@@H]2N` [Compound 131, (5S)-1'-[7-(2-fluorophenyl)-6-methyl-pyrazolo[1,5-a]pyrazin-4-yl] -3-methoxy-spiro [5,7-dihydrocyclopenta[c]pyridine-6,4'-piperidine]-5-amine] has an IC50 of 13 nM. `Cc1nc(N2CCC3(CC2)Cc2ccncc2[C@H]3N)c2ccnn2c1-c1ccccc1F` [Compound 134, (7S)-1'-[7-(2-fluorophenyl)-6-methyl-pyrazolo[1,5-a]pyrazin-4-yl]spiro[5,7-dihydrocyclopenta[c]pyridine-6,4'-piperidine]-7-amine] was tested, and the IC50 was 4 nM. Work on `COc1cc2c(cn1)CC1(CCN(c3nc(C)c(-c4ccccc4)n4nccc34)CC1)[C@@H]2N` [Compound 135, (5S)-3-methoxy-1'-(6-methyl-7-phenyl-pyrazolo[1,5-a]pyrazin-4-yl)spiro[5,7-dihydrocyclopenta[c]pyridine-6,4'-piperidine]-5-amine] yielded an IC50 of 12 nM. With `Cc1nc(N2CCC3(CC2)Cc2ncccc2[C@@H]3N)c2ccnn2c1-c1ccccc1F` [Compound 136, (5R)-1'-[7-(2-fluorophenyl)-6-methyl-pyrazolo[1,5-a]pyrazin-4-yl]spiro[5,7-dihydrocyclopenta[b]pyridine-6,4'-piperidine]-5-amine] the IC50 was 383 nM. `COc1cc2c(cn1)CC1(CCN(c3nc(C)c(-c4ccnc(C)c4Cl)n4nccc34)CC1)[C@@H]2N` [Compound 137, (5S)-1'-[7-(3-chloro-2-methyl-4-pyridyl)-6-methyl-pyrazolo[1,5-a]pyrazin-4-yl]-3-methoxy-spiro[5,7-dihydrocyclopenta[c]pyridine-6,4'-piperidine]-5-amine] was tested, and the IC50 was 6 nM. Work on `Cc1nc(N2CCC3(CC2)Cc2ccncc2[C@H]3N)c2ccnn2c1-c1ccccc1` [Compound 138, (7S)-1'-(6-methyl-7-phenyl-pyrazolo[1,5-a]pyrazin-4-yl)spiro[5,7-dihydrocyclopenta[c]pyridine-6,4'-piperidine]-7-amine] yielded an IC50 of 4 nM. `Cc1nccc(-c2c(C)nc(N3CCC4(CC3)Cc3ccncc3[C@H]4N)c3ccnn23)c1Cl` [Compound 139, (7S)-1'-[7-(3-chloro-2-methyl-4-pyridyl)-6-methyl-pyrazolo[1,5-a]pyrazin-4-yl]spiro[5,7-dihydrocyclopenta[c]pyridine-6,4'-piperidine]-7-amine] gave an IC50 of 4 nM. Work on `Cc1nccc(-c2c(C)nc(N3CCC4(CC3)Cc3ccncc3[C@H]4N)c3ccnn23)c1F` [Compound 140, (7S)-1'-[7-(3-fluoro-2-methyl-4-pyridyl)-6-methyl-pyrazolo[1,5-a]pyrazin-4-yl]spiro[5,7-dihydrocyclopenta[c]pyridine-6,4'-piperidine]-7-amine] yielded an IC50 of 7 nM. `Cc1nc(N2CCC3(CC2)Cc2ncccc2[C@@H]3N)c2ccnn2c1-c1ccccc1` [Compound 141, (5R)-1'-(6-methyl-7-phenyl-pyrazolo[1,5-a]pyrazin-4-yl)spiro[5,7-dihydrocyclopenta[b]pyridine-6,4'-piperidine]-5-amine] showed an IC50 of 853 nM. `Cc1nc(N2CCC3(CC2)Cc2ncccc2[C@H]3N)c2c(F)cnn2c1-c1ccccc1F` [Compound 142, (5S)-1'-[3-fluoro-7-(2-fluorophenyl)-6-methyl-pyrazolo [1,5-a]pyrazin-4-yl]spiro[5,7-dihydrocyclopenta[b]pyridine-6,4'-piperidine]-5-amine hydrochloride] showed an IC50 of 26 nM.
